According to US9085593B2, “Therapeutic agent for arthrosis” (SANSHO CO., LTD., priority 2011, dated 2015):
“And” between values parts separate entries of the source, which are not always exact repeats. Identical values can stand only once.

Tested on: osteoarthritis in rabbit knee
Experiment: Histopathological evaluation of femur and tibia condyles, rabbit knee osteoarthritis model
Assay type: in vivo, rabbits (Kbs:NZW)
Design: key to Fibrillation and/or fissure / Lowered proteoglycan stainability / Disorganization of chondrocytes / Loss of chondrocytes / Exposure of subchondral bone / Cluster formation / Histopathological score / Loss of superficial layer / Cartilage erosion: 0: None; 1: slight; 2: mild; 3: moderate; 4: severe; key to Disorganization of chondrocytes, Mean / Loss of chondrocytes, Mean / Exposure of subchondral bone, Mean / Cluster formation, Mean / Cartilage erosion, Mean: grade 0 to +4 per item; key to Histopathological score, Mean: sum of 8 items each graded 0 to +4
Details: for Cluster formation / Disorganization of chondrocytes / Exposure of subchondral bone / Fibrillation and/or fissure / Loss of chondrocytes / Lowered proteoglycan stainability / Cartilage erosion / Loss of superficial layer / Histopathological score / Cartilage erosion, Mean / Cluster formation, Mean / Disorganization of chondrocytes, Mean / Exposure of subchondral bone, Mean / Fibrillation and/or fissure, Mean / Loss of chondrocytes, Mean / Loss of superficial layer, Mean / Lowered proteoglycan stainability, Mean / Histopathological score, Mean: day 42; for Cluster formation / Disorganization of chondrocytes / Exposure of subchondral bone / Fibrillation and/or fissure / Loss of chondrocytes / Lowered proteoglycan stainability / Cartilage erosion / Loss of superficial layer / Histopathological score: individual animals 201-206; for Cluster formation / Disorganization of chondrocytes / Exposure of subchondral bone / Fibrillation and/or fissure / Loss of chondrocytes / Lowered proteoglycan stainability / Cartilage erosion / Loss of superficial layer: grade 0-4; for Histopathological score: sum of all items; for Cartilage erosion, Mean / Cluster formation, Mean / Disorganization of chondrocytes, Mean / Exposure of subchondral bone, Mean / Fibrillation and/or fissure, Mean / Loss of chondrocytes, Mean / Loss of superficial layer, Mean / Lowered proteoglycan stainability, Mean / Histopathological score, Mean: group mean n=6
Method: Twelve 11- to 12-week-old male rabbits (Kbs:NZW) were used. Rabbits were reared in separate cages (one rabbit per cage) at 14.4° C. to 24.9° C. under light (12 hours from 7:00 am to 7:00 pm) with continuous ventilation. Rabbits were allowed to eat 150 g of feed (CR-3, CLEA Japan, Inc.) per day and to drink tap water.
(9Z)-9-Octadecenoic acid-(2-hydroxy-2-oxide-1,2-oxaphospholan-4-yl)methyl ester sodium salt (C18:1-cPA; hereafter, referred to as “ScPA”) was used.
Hair in the vicinity of the knee joint of the right hind limb of a rabbit was shaved using electrical clippers under deep anesthesia, and the shaved area was disinfected with Isodine. The outer coat on the medial aspect of the right hind limb was incised with a surgical knife, the boundary between the medial aspect and the articular capsule of the patellofemoral ligament was further incised, and the medial patellofemoral ligament was then dissected. Thereafter, the articular capsule was spread wide open to expose the medial meniscus, which was then completely removed. Following the removal of the meniscus, tissue and epidermis in the vicinity of the articular capsule were sutured. At the time of suturing, the site of operation was washed with physiological saline (titer: 500 mg/20 ml) containing antibiotics (Viccillin, Meiji Seika Pharma Co., Ltd.).
After the model animals were prepared, they were divided into two groups each consisting of 6 individuals while averaging body […] (i.e., the vehicle administered group of Animal Numbers 101 to 106 and the test substance (ScPA) administered group of Animal Numbers 201 to 206).
The test compound and the vehicle were administered in the manner described below. • Route of administration: into the joint cavity • Site of administration: right hind limb (treated limb) • Timing of administration: on days 7, 11, 14, 18, 21, 25, 28, 32, 35, and 39 • Dosage: Test compound: 10 μg/rabbit (volume: 0.2 ml) • Vehicle: 0.2 ml/rabbit • Means of administration: with the use of a 1.0-ml syringe (Terumo Corporation) and a 27 G injection needle (Terumo Corporation) (1-5) Pain Assessment (Weight Distribution Across both Hind Limbs) Frequency of Measurement:
Four limbs were dissected from the animals under deep anesthesia, causing them to bleed to death. Thereafter, the femur condyle and the tibial condyle were removed from the knee joint of the treated limb (the right hind limb), followed by fixation in a 10% neutral buffered formalin solution.
The femur and the tibia that had been soaked and fixed in a 10% neutral buffered formalin solution were subjected to demineralization with EDTA. After the completion of demineralization, the colored sites identified below were embedded in paraffin in accordance with a conventional technique, and the resultant was sliced to a thickness of 4 μm each. The slices were subjected to hematoxylin-eosin (HE) staining and safranin O (proteoglycan) staining and histopathologically examined under an optical microscope (BX51TF; OLYMPUS). The degree of cartilage degeneration of the pathological specimens was evaluated in accordance with the criteria shown in Table 1 below (Kikuchi, T, Yoneda, H. et al., Osteoarthritis cartilage, 4; p. 99 and continuing pages, 1996). Specifically, the specimens were evaluated in terms of loss of the following 8 items according to a five-grade evaluation (0 to +4): superficial layer; cartilage erosion; fibrillation and/or fissure; lowered proteoglycan stainability (safranin O stainability); disorganization of chondrocytes; loss of chondrocytes; exposure of subchondral bone; and cluster formation. The sum total score of all items was defined as the overall score. Observation items without specific criteria defined in Table 1 were evaluated in accordance with the criteria shown in Table 2 below (Naoki Ishiguro et al., Journal of Surgery, 29: p. 112 and continuing pages, 2010).

[1] = lateral condyle of femur, listed as Test substance, sodium salt
[2] = lateral condyle of tibia, listed as Test substance, sodium salt
[3] = medial condyle of femur, listed as Test substance, sodium salt
[4] = medial condyle of the femur, of 6 samples
[5] = medial condyle of the tibia, of 6 samples
[6] = medial condyle of tibia, listed as Test substance, sodium salt

Q: `CCCCCCCC/C=C\CCCCCCCC(=O)OCC1COP(=O)([O-])C1.[Na+]` (stereo not shown) [ScPA, (9Z)-9-Octadecenoic acid-(2-hydroxy-2-oxide-1,2-oxaphospholan-4-yl)methyl ester sodium salt] was tested. Which “cartilage erosion in histopathological image (FIG. 12 B)” value (Animal No. 201, medial aspect of the right femur, HE staining) did it give?
A: The value was “slight”.

Q: And the “joint cartilage change in histopathological image (FIG. 12 D)” value (Animal No. 201, medial aspect of the right femur, SO staining)?
A: The value was “no change”.

Q: And the Cluster formation (lateral condyle of femur)?
A: The Cluster formation was 0.

Q: And the Disorganization of chondrocytes (lateral condyle of femur)?
A: Its Disorganization of chondrocytes is 0.

Q: And the “Exposure of subchondral bone” value (lateral condyle of femur)?
A: The value was 0.

Q: And the Fibrillation and/or fissure (lateral condyle of femur)?
A: Its Fibrillation and/or fissure is 0.

Q: And the Loss of chondrocytes (lateral condyle of femur)?
A: The Loss of chondrocytes was 0.

Q: And the Lowered proteoglycan stainability (lateral condyle of femur)?
A: Its Lowered proteoglycan stainability is 0.

Q: What about the Cartilage erosion [1] of the same compound?
A: Its Cartilage erosion is 0 (4×) and 1 (2×).

Q: What about the “Loss of superficial layer” value [1] of the same compound?
A: Its value is 0 (4×) and 1 (2×).

Q: And the Histopathological score [1]?
A: Its Histopathological score is 0 (4×) and 2 (2×).

Q: And the Cartilage erosion (lateral condyle of tibia)?
A: Its Cartilage erosion is 0.

Q: What about the Cluster formation (lateral condyle of tibia) of the same compound?
A: Its Cluster formation is 0.

Q: And the Disorganization of chondrocytes (lateral condyle of tibia)?
A: The Disorganization of chondrocytes was 0.

Q: And the “Exposure of subchondral bone” value (lateral condyle of tibia)?
A: The value was 0.

Q: What about the Fibrillation and/or fissure (lateral condyle of tibia) of the same compound?
A: The Fibrillation and/or fissure was 0.

Q: What about the Loss of chondrocytes (lateral condyle of tibia) of the same compound?
A: The Loss of chondrocytes was 0.

Q: What about the “Loss of superficial layer” value (lateral condyle of tibia) of the same compound?
A: The value was 0.

Q: What about the Lowered proteoglycan stainability [2] of the same compound?
A: Its Lowered proteoglycan stainability is 0 (3×) and 1 (3×).

Q: What about the Histopathological score [2] of the same compound?
A: The Histopathological score was 0 (3×) and 1 (3×).

Q: And the “damages resulting from the preparation of osteoarthritis models” value (lateral condyles of the femur and of the tibia)?
A: Its value is “substantially no damages”.

Q: What about the “Cartilage erosion, Mean” value (medial condyle of femur) of the same compound?
A: Its value is 1.17.

Q: What about the “Cluster formation, Mean” value (medial condyle of femur) of the same compound?
A: The value was 2.17.

Q: What about the “Disorganization of chondrocytes, Mean” value (medial condyle of femur) of the same compound?
A: Its value is 0.83.

Q: What about the “Exposure of subchondral bone, Mean” value (medial condyle of femur) of the same compound?
A: The value was 0.33.

Q: And the “Fibrillation and/or fissure, Mean” value (medial condyle of femur)?
A: Its value is 0.67.

Q: What about the “Loss of chondrocytes, Mean” value (medial condyle of femur) of the same compound?
A: Its value is 0.83.

Q: What about the “Loss of superficial layer, Mean” value (medial condyle of femur) of the same compound?
A: Its value is 1.17.

Q: And the “Lowered proteoglycan stainability, Mean” value (medial condyle of femur)?
A: The value was 1.17.

Q: And the “Histopathological score, Mean” value (medial condyle of femur, p=0.0649 vs vehicle, listed as Test substance, sodium salt)?
A: The value was 8.33.

Q: And the “Histopathological score, Mean” value (medial condyle of femur, p=0.0649 vs vehicle, listed as test substance, sodium salt)?
A: The value was 8.33±2.51.

Q: And the Cartilage erosion [3]?
A: The Cartilage erosion was 1 (4×) and 0 and 3.

Q: What about the Cluster formation [3] of the same compound?
A: Its Cluster formation is 2 (4×) and 4 and 1.

Q: What about the Disorganization of chondrocytes [3] of the same compound?
A: Its Disorganization of chondrocytes is 0 and 1 (5×).

Q: What about the “Exposure of subchondral bone” value [3] of the same compound?
A: The value was 0 (5×) and 2.

Q: And the Fibrillation and/or fissure [3]?
A: Its Fibrillation and/or fissure is 1 and 0 (4×) and 3.

Q: And the Loss of chondrocytes [3]?
A: The Loss of chondrocytes was 0 (3×) and 1 (2×) and 3.

Q: What about the “Loss of superficial layer” value [3] of the same compound?
A: The value was 1 (4×) and 0 and 3.

Q: And the Lowered proteoglycan stainability [3]?
A: Its Lowered proteoglycan stainability is 1 (2×) and 2 and 0 (2×) and 3.

Q: And the Histopathological score [3]?
A: Its Histopathological score is 6 (2×) and 10 and 3 and 20 and 5.

Q: What about the Histopathological score (medial condyle of femur, listed as test substance, sodium salt) of the same compound?
A: Its Histopathological score is 6 (2×) and 5 and 10 and 3 and 20.

Q: What about the “samples in which cartilage erosion was observed” value [4] of the same compound?
A: The value was 5.

Q: What about the “samples in which cluster formation was observed” value [4] of the same compound?
A: The value was 6.

Q: And the “samples in which disorganization of chondrocytes was observed” value [4]?
A: Its value is 5.

Q: And the “samples in which loss of cartilage superficial layer was observed” value [4]?
A: The value was 5.

Q: And the “samples with changes lesser than those observed in the vehicle administered group” value [4]?
A: Its value is 4.

Q: What about the “histopathological scores compared with the vehicle administered group” value (medial condyle of the femur, p=0.0649) of the same compound?
A: The value was “lower than those of the vehicle administered group”.

Q: And the “samples in which cartilage fibrillation and/or fissure was observed” value [5]?
A: The value was 6.

Q: And the “samples in which loss of cartilage superficial layer was observed” value [5]?
A: The value was 5.

Q: What about the “samples in which lowered proteoglycan stainability was observed” value [5] of the same compound?
A: The value was 5.

Q: What about the “Cartilage erosion, Mean” value (medial condyle of tibia) of the same compound?
A: The value was 1.17.

Q: And the “Cluster formation, Mean” value (medial condyle of tibia)?
A: The value was 1.50.

Q: And the “Disorganization of chondrocytes, Mean” value (medial condyle of tibia)?
A: The value was 1.33.

Q: What about the “Exposure of subchondral bone, Mean” value (medial condyle of tibia) of the same compound?
A: Its value is 0.50.

Q: And the “Fibrillation and/or fissure, Mean” value (medial condyle of tibia)?
A: Its value is 1.50.

Q: What about the “Loss of chondrocytes, Mean” value (medial condyle of tibia) of the same compound?
A: Its value is 0.67.

Q: What about the “Loss of superficial layer, Mean” value (medial condyle of tibia) of the same compound?
A: Its value is 2.00.

Q: And the “Lowered proteoglycan stainability, Mean” value (medial condyle of tibia)?
A: Its value is 1.83.

Q: And the “Histopathological score, Mean” value (medial condyle of tibia, p=0.6991 vs vehicle, listed as Test substance, sodium salt)?
A: The value was 10.50.

Q: And the “Histopathological score, Mean” value (medial condyle of tibia, p=0.6991 vs vehicle, listed as test substance, sodium salt)?
A: Its value is 10.50±3.91.

Q: What about the Cartilage erosion [6] of the same compound?
A: Its Cartilage erosion is 2 and 1 (2×) and 0 (2×) and 3.

Q: What about the Cluster formation [6] of the same compound?
A: Its Cluster formation is 4 and 1 (2×) and 0 (2×) and 3.

Q: What about the Disorganization of chondrocytes [6] of the same compound?
A: The Disorganization of chondrocytes was 2 and 1 (2×) and 0 (2×) and 4.

Q: And the “Exposure of subchondral bone” value [6]?
A: Its value is 0 (5×) and 3.

Q: And the Fibrillation and/or fissure [6]?
A: Its Fibrillation and/or fissure is 1 (4×) and 3 and 2.

Q: What about the Loss of chondrocytes [6] of the same compound?
A: Its Loss of chondrocytes is 0 (4×) and 3 and 1.

Q: And the “Loss of superficial layer” value [6]?
A: The value was 3 (2×) and 1 (2×) and 0 and 4.

Q: And the Lowered proteoglycan stainability [6]?
A: Its Lowered proteoglycan stainability is 4 (2×) and 1 (3×) and 0.

Q: What about the Histopathological score [6] of the same compound?
A: The Histopathological score was 16 and 6 and 1 and 27 and 9 and 4.

Q: And the Histopathological score (medial condyle of tibia, listed as test substance, sodium salt)?
A: The Histopathological score was 4 and 16 and 6 and 1 and 27 and 9.
